System: lung autotumor
Assay: Inhibition of mouse lung autotumor induced by ethylnitrosourea (Test Example 5)
Type: in vivo, DDY mice
Protocol: 100 mg/kg of ethylnitrosourea was given intraperitoneally to DDY mice 3 to 4 days prior to delivery. After delivery, mice born with lung autotumor were used as the test animals. One group consisted of 10 mice.
Four weeks after birth, a given amount of CNUA was administered in two ways, i.e., intravenous administration and peroral administration at predetermined times. Nine weeks after, the area of the tumor of each mouse was measued and the inhibition rate (%) was calculated.

O=NN(CCCl)C(=O)N[C@@H]1[C@H](O)[C@@H](CO)OC(O)[C@@H]1O (stereo partly drawn) [CNUA, 3-[3-(2-chloroethyl)-3-nitrosoureido]-3-deoxy-D-allose]
Inhibition rate (iv, 5 weeks after birth, 40 × 1 mg/kg): 37.2%
Area of tumor (± S.E.) (iv, 5 weeks after birth, 40 × 1 mg/kg, p < 0.05, control 1.45 ± 0.30): 0.91 ± 0.81 mm^2
Inhibition rate (iv, 5.6 weeks after birth, 40 × 2 mg/kg): 49.2%
Area of tumor (± S.E.) (iv, 5.6 weeks after birth, 40 × 2 mg/kg, p < 0.01, control 1.45 ± 0.30): 0.75 ± 0.22 mm^2
Inhibition rate (iv, 5.7 weeks after birth, 40 × 2 mg/kg): 46.5%
Area of tumor (± S.E.) (iv, 5.7 weeks after birth, 40 × 2 mg/kg, p < 0.01, control 1.45 ± 0.30): 0.79 ± 0.31 mm^2
Inhibition rate (po, 5,6,7,8 weeks after birth, 133 × 4 mg/kg): 44.7%
Area of tumor (± S.E.) (po, 5,6,7,8 weeks after birth, 133 × 4 mg/kg, p < 0.01, control 1.41 ± 0.44): 0.78 ± 0.22 mm^2
Inhibition rate (po, 5,6,7,8 weeks after birth, 200 × 4 mg/kg): 44.7%
Area of tumor (± S.E.) (po, 5,6,7,8 weeks after birth, 200 × 4 mg/kg, p < 0.01, control 1.41 ± 0.44): 0.78 ± 0.16 mm^2
Inhibition rate (po, 5,6,7,8 weeks after birth, 267 × 4 mg/kg): 61.0%
Area of tumor (± S.E.) (po, 5,6,7,8 weeks after birth, 267 × 4 mg/kg, p < 0.01, control 1.41 ± 0.44): 0.55 ± 0.18 mm^2
Inhibition rate (po, 5,6,7,8 weeks after birth, 333 × 4 mg/kg): 53.2%
Area of tumor (± S.E.) (po, 5,6,7,8 weeks after birth, 333 × 4 mg/kg, p < 0.01, control 1.41 ± 0.44): 0.66 ± 0.14 mm^2

Source: US4349546A, “D-Allose derivative and preparation method therefor” (Wakamoto Pharmaceutical Co., Ltd., priority 1980, dated 1982)
